Laboratory results from article PMC3947464 (ChemMedChem, 2013).

Tests used:
U937 cells = experiment: MTT anti-proliferation assay, U937; format: cell-based; conditions: Homo sapiens, U-937, 48 h, read-out: IC50 tumor cell growth inhibition U937
K562 cells = experiment: MTT anti-proliferation assay, K562; format: cell-based; conditions: Homo sapiens, K562, 48 h, read-out: IC50 tumor cell growth inhibition K562
HL60 cells = experiment: MTT anti-proliferation assay, HL60; format: cell-based; conditions: Homo sapiens, HL-60, 48 h, read-out: IC50 tumor cell growth inhibition HL60
MCF7 cells = experiment: MTT anti-proliferation assay, MCF7; format: cell-based; conditions: Homo sapiens, MCF7, 48 h, read-out: IC50 tumor cell growth inhibition MCF7
PC3 cells = experiment: MTT anti-proliferation assay, PC3; format: cell-based; conditions: Homo sapiens, PC-3, 48 h, read-out: IC50 tumor cell growth inhibition PC3
U937 cell line [1] = experiment: Western blot of acetylated histone H3, H4, p21 and acetylated tubulin in U937; format: cell-based, Human; conditions: U937, 1 µM; for cell permeability and intracellular HDAC inhibition: 6h and 24h, western blot; for acetylated tubulin level, 24h: after 24h
U937 xenograft = experiment: In vivo antitumor assay against U937 xenograft; design: species or system athymic nude mice; conditions: 100 mg/kg/d intragastric, 16 days; for mean weight of tumors: negative control 2.66 g
[2] = Body weight and organ toxicity in the U937 xenograft study; format: in vivo; conditions: 100 mg/kg/d intragastric, measured every two days
Water solubility = format: physicochemical; conditions: compared among the derived molecules
U937 cell line [3] = experiment: Western blot of c-Raf, p-Erk, Erk, p-Akt, Akt in U937; format: cell-based, Human; conditions: U937, 1 µM, 24h

Row | IC50 (U937 cells) | IC50 (K562 cells) | IC50 (HL60 cells) | IC50 (MCF7 cells) | IC50 (PC3 cells) | SMILES | cell permeability and intracellular HDAC inhibition (U937 cell line [1]) | acetylated tubulin level, 24h (U937 cell line [1]) | inhibitory ratio (tumor weight) (U937 xenograft) | mean weight of tumors (U937 xenograft) | mice body weight loss [2] | water solubility (Water solubility) | p-Akt level (U937 cell line [3])
1 | 1310 ± 70 nM | 1550 ± 50 nM | 3830 ± 290 nM | 5140 ± 430 nM | 1510 ± 50 nM | COc1ccccc1NC(=O)N[C@H](C(=O)Nc1ccc(C(=O)NO)cc1)c1ccccc1 [Compound D18, (S)-N-hydroxy-4-(2-(3-(2-methoxyphenyl)ureido)-2-phenylacetamido)benzamide] | cell permeable and can inhibit intracellular and even nuclear HDACs | reduced | – | – | – | – | –
2 | 1710 ± 30 nM | 3160 ± 110 nM | 780 ± 20 nM | 8230 ± 320 nM | 20500 ± 1730 nM | COc1ccccc1C(=O)N[C@H](C(=O)Nc1ccc(C(=O)NO)cc1)c1ccccc1 [Compound D11, (S)-N-(2-((4-(hydroxycarbamoyl)phenyl)amino)-2-oxo-1-phenylethyl)-2-methoxybenzamide] | – | – | – | – | – | – | –
3 | 1770 ± 60 nM | 1470 ± 70 nM | 2020 ± 150 nM | 10800 ± 930 nM | 5670 ± 350 nM | O=C(NO)c1ccc(NC(=O)[C@@H](NC(=O)c2ccccc2)c2ccccc2)cc1 [Compound D7, (S)-4-(2-benzamido-2-phenylacetamido)-N-hydroxybenzamide] | – | – | – | – | – | – | –
4 | 1630 ± 90 nM | 930 ± 20 nM | 2880 ± 160 nM | 8660 ± 730 nM | 10100 ± 570 nM | O=C(NO)c1ccc(NC(=O)[C@@H](NS(=O)(=O)c2cccc3ccccc23)c2ccccc2)cc1 [Compound D5, (S)-N-hydroxy-4-(2-(naphthalene-1-sulfonamido)-2-phenylacetamido)benzamide] | cell permeable and can inhibit intracellular and even nuclear HDACs | still significant | – | – | – | – | –
5 | 1640 ± 80 nM | 1590 ± 60 nM | 4550 ± 210 nM | 2040 ± 170 nM | 5880 ± 360 nM | O=C(NO)c1ccc(NC(=O)[C@@H](NC(=O)c2ccc(F)cc2)c2ccccc2)cc1 [Compound D4, (S)-4-fluoro-N-(2-((4-(hydroxycarbamoyl)phenyl)amino)-2-oxo-1-phenylethyl)benzamide] | – | – | – | – | – | – | –
6 | 1550 ± 40 nM | 1930 ± 120 nM | 1800 ± 90 nM | 6280 ± 330 nM | 3000 ± 150 nM | COc1ccc(C(=O)N[C@H](C(=O)Nc2ccc(C(=O)NO)cc2)c2ccccc2)cc1 [Compound D12, (S)-N-hydroxy-4-(2-(4-methoxybenzamido)-2-phenylacetamido)benzamide] | – | – | – | – | – | – | –
7 | 1320 ± 70 nM | 1190 ± 40 nM | 3150 ± 130 nM | 2920 ± 150 nM | 3770 ± 270 nM | O=C(NO)c1ccc(NC(=O)[C@@H](NC(=O)c2ccc3ccccc3c2)c2ccccc2)cc1 [Compound D3, (S)-N-(2-((4-(hydroxycarbamoyl)phenyl)amino)-2-oxo-1-phenylethyl)-2-naphthamide] | cell permeable and can inhibit intracellular and even nuclear HDACs | still significant | – | – | – | – | significantly decreased
8 | 1390 ± 30 nM | 1580 ± 60 nM | 1530 ± 40 nM | 9710 ± 440 nM | 31600 ± 2330 nM | O=C(NO)c1ccc(NC(=O)[C@@H](NC(=O)c2cccc(Br)c2)c2ccccc2)cc1 [Compound D13, (S)-3-bromo-N-(2-((4-(hydroxycarbamoyl)phenyl)amino)-2-oxo-1-phenylethyl)benzamide] | cell permeable and can inhibit intracellular and even nuclear HDACs | still significant | – | – | – | – | –

Row | SMILES | IC50 (U937 cells) | IC50 (K562 cells) | IC50 (HL60 cells) | IC50 (MCF7 cells) | IC50 (PC3 cells) | cell permeability and intracellular HDAC inhibition (U937 cell line [1]) | acetylated tubulin level, 24h (U937 cell line [1]) | inhibitory ratio (tumor weight) (U937 xenograft) | mean weight of tumors (U937 xenograft) | mice body weight loss [2] | water solubility (Water solubility) | p-Akt level (U937 cell line [3])
9 | CN(C)c1cccc2c(S(=O)(=O)N[C@H](C(=O)Nc3ccc(C(=O)NO)cc3)c3ccccc3)cccc12 [Compound D17, (S)-4-(2-(5-(dimethylamino)naphthalene-1-sulfonamido)-2-phenylacetamido)-N-hydroxybenzamide] | 1240 ± 20 nM | 700 ± 10 nM | 3660 ± 130 nM | 5340 ± 220 nM | 3310 ± 160 nM | cell permeable and can inhibit intracellular and even nuclear HDACs | reduced | 53.57% | 1.24 g | No evidence of mice body weight (measured every two days) loss | best water solubility | significantly decreased
10 | O=C(CCCCCCC(=O)Nc1ccccc1)NO [SAHA, Suberoyl anilide hydroxamic acid, reference compound] | – | 1860 ± 70 nM | – | – | – | – | – | – | 2.00 g | – | – | –
